Assay results taken from US20110045101A1, “FUNGICIDAL SUBSTITUTED AZOLES” (E.I. Du Pont De Nemours and Company, priority 2009, published 2011).

Legend:
Assay type in all cases: in vivo
[1] = system: Puccinia recondita f. sp. tritici; assay: Test I: wheat leaf rust on wheat seedlings, sprayed the day before inoculation, visual disease rating; details: 100 = 100% disease control; for pest or weed control at 40 ppm / pest or weed control at 200 ppm: Puccinia recondita, 168 h; for pest or weed control at 40 ppm: 40 ppm (marked *); for pest or weed control at 200 ppm: 0 = no control relative to controls; for pest or weed control at 200 ppm / Test I disease control rating: 200 ppm; for Test I disease control rating: 0 = no control
Procedure, shortened: (§1)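 Compounds were dissolved in acetone (3% of final volume), then suspended in 50/50 acetone/purified water with 250 ppm Trem® 014 surfactant. Suspensions at 200 ppm (some at 40 ppm) were sprayed to run-off, 200 ppm being equivalent to 500 g/ha.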

[2] = system: Puccinia recondita f. sp. tritici; assay: Test H: wheat leaf rust, test suspension sprayed after inoculation of wheat seedlings, visual disease rating; details: 100 = 100% disease control; for pest or weed control at 40 ppm / pest or weed control at 200 ppm: Puccinia recondita, 96 h; for pest or weed control at 40 ppm: 40 ppm (marked *); for pest or weed control at 200 ppm: 0 = no control relative to controls; for pest or weed control at 200 ppm / Test H disease control rating: 200 ppm; for Test H disease control rating: 0 = no control
Text: General protocol for preparing test suspensions for Tests A-J: The test compounds were first dissolved in acetone in an amount equal to 3% of the final volume and then suspended at the desired concentration (in ppm) in acetone and purified water (50/50 mix) containing 250 ppm of the surfactant Trem® 014 (polyhydric alcohol esters). The resulting test suspensions were then used in tests A-J. Spraying a 200 ppm test suspension to the point of run-off on the test plants was the equivalent of a rate of 500 g/ha. […] Wheat seedlings were inoculated with a spore suspension of Puccinia recondita f. sp. tritici (the causal agent of wheat leaf rust) and incubated in a saturated atmosphere at 20° C. for 24 h, and then moved to a growth chamber at 20° C. for 2 days. […] A dash (-) indicates no test results. All results are for 200 ppm except where followed by “*”, which indicates 40 ppm.

Septoria nodorum = assay: Test F: wheat glume blotch on wheat seedlings, sprayed the day before inoculation, visual disease rating; details: 100 = 100% disease control; for pest or weed control at 40 ppm / pest or weed control at 200 ppm: Parastagonospora nodorum, 264 h; for pest or weed control at 40 ppm: 40 ppm (marked *); for pest or weed control at 200 ppm: 0 = no control relative to controls; for pest or weed control at 200 ppm / Test F disease control rating: 200 ppm; for Test F disease control rating: 0 = no control
Procedure, shortened: as §1

[3] = system: Erysiphe graminis f. sp. tritici; assay: Test J: wheat powdery mildew on wheat seedlings, sprayed the day before inoculation, visual disease rating; details: 100 = 100% disease control; for pest or weed control at 40 ppm / pest or weed control at 200 ppm: Blumeria graminis, 168 h; for pest or weed control at 40 ppm: 40 ppm (marked *); for pest or weed control at 200 ppm: 0 = no control relative to controls; for pest or weed control at 200 ppm / Test J disease control rating: 200 ppm; for Test J disease control rating: 0 = no control
Procedure, shortened: as §1

Botrytis cinerea = assay: Test C: tomato Botrytis on tomato seedlings, sprayed the day before inoculation, visual disease rating; details: 100 = 100% disease control; for pest or weed control at 40 ppm / pest or weed control at 200 ppm: Botrytis cinerea, 120 h; for pest or weed control at 40 ppm: 40 ppm (marked *); for pest or weed control at 200 ppm: 0 = no control relative to controls; for pest or weed control at 200 ppm / Test C disease control rating: 200 ppm; for Test C disease control rating: 0 = no control
Procedure, shortened: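 Compounds were dissolved in acetone (3% of final volume), then suspended in 50/50 acetone/purified water containing 250 ppm polyhydric alcohol ester surfactant. Suspensions were sprayed to run-off on tomato seedlings at 200 ppm, equivalent to 500 g/ha, or at 40 ppm where marked.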

Septoria tritici = assay: Test G: wheat leaf blotch on wheat seedlings, sprayed the day before inoculation, visual disease rating; details: 100 = 100% disease control; for pest or weed control at 40 ppm / pest or weed control at 200 ppm: Zymoseptoria tritici, 504 h; for pest or weed control at 40 ppm: 40 ppm (marked *); for pest or weed control at 200 ppm: 0 = no control relative to controls; for pest or weed control at 200 ppm / Test G disease control rating: 200 ppm; for Test G disease control rating: 0 = no control
Procedure, shortened: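 Disease was rated visually after Septoria tritici inoculation, 48 h saturated incubation at 24°C and 19 days in a 20°C growth chamber. Inoculation followed one day after run-off spraying of seedlings with compound at 200 ppm (≈500 g/ha) or, where marked, 40 ppm, formulated in acetone/water with surfactant.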

Alternaria solani = assay: Test D: tomato early blight, sprayed the day before inoculation, visual disease rating; details: 100 = 100% disease control; for pest or weed control at 40 ppm / pest or weed control at 200 ppm: Alternaria solani, 168 h; for pest or weed control at 40 ppm: 40 ppm (marked *); for pest or weed control at 200 ppm: 0 = no control relative to controls; for pest or weed control at 200 ppm / Test D disease control rating: 200 ppm; for Test D disease control rating: 0 = no control
Procedure, shortened: as §1

| SMILES | Test I disease control rating [1] [%] | Test H disease control rating [2] [%] | Test F disease control rating (Septoria nodorum) [%] | Test J disease control rating [3] [%] | Test C disease control rating (Botrytis cinerea) [%] | Test G disease control rating (Septoria tritici) [%] | Test D disease control rating (Alternaria solani) [%] | also measured |
| --- | --- | --- | --- | --- | --- | --- | --- | --- |
| COc1cc(OC)cc(-n2c(Cl)nc(C)c2-c2c(F)cc(OC)cc2F)c1 [Compound 694, 2-chloro-5-(2,6-difluoro-4-methoxyphenyl)-1-(3,5-dimethoxyphenyl)-4-methyl-1H-imidazole] |  |  |  |  |  |  |  | pest or weed control at 40 ppm [1]: 99%; pest or weed control at 40 ppm [2]: 0%; pest or weed control at 40 ppm (Septoria nodorum): 99%; pest or weed control at 40 ppm [3]: 98%; pest or weed control at 40 ppm (Botrytis cinerea): 100%; pest or weed control at 40 ppm (Septoria tritici): 98%; pest or weed control at 40 ppm (Alternaria solani): 100% |
| COc1cc(F)c(-n2c(Cl)nc(C)c2-c2ccc(Cl)nc2)c(F)c1 [Compound 696, 2-chloro-5-[2-chloro-1-(2,6-difluoro-4-methoxyphenyl)-4-methyl-1H-imidazol-5-yl]pyridine] |  |  |  |  |  |  |  | pest or weed control at 40 ppm [1]: 99%; pest or weed control at 40 ppm [2]: 99%; pest or weed control at 40 ppm (Septoria nodorum): 100%; pest or weed control at 40 ppm [3]: 100%; pest or weed control at 40 ppm (Botrytis cinerea): 100%; pest or weed control at 40 ppm (Septoria tritici): 99%; pest or weed control at 40 ppm (Alternaria solani): 100% |
| COc1cc(F)c(-c2c(Cl)nc(Br)n2-c2ccc(C(F)(F)F)nc2)c(F)c1 [Compound 707, 5-[2-bromo-4-chloro-5-(2,6-difluoro-4-methoxyphenyl)-1H-imidazol-1-yl]-2-(trifluoromethyl)pyridine] |  |  |  |  |  |  |  | pest or weed control at 200 ppm [1]: 100%; pest or weed control at 200 ppm [2]: 67%; pest or weed control at 200 ppm (Septoria nodorum): 100%; pest or weed control at 200 ppm [3]: 100%; pest or weed control at 200 ppm (Botrytis cinerea): 100%; pest or weed control at 200 ppm (Septoria tritici): 99%; pest or weed control at 200 ppm (Alternaria solani): 100% |
| COc1cc(F)c(-c2c(Cl)nc(C)n2-c2ccc(C(F)(F)F)nc2)c(F)c1 [Compound 713, 5-[4-chloro-5-(2,6-difluoro-4-methoxyphenyl)-2-methyl-1H-imidazol-1-yl]-2-(trifluoromethyl)pyridine] |  |  |  |  |  |  |  | pest or weed control at 200 ppm [1]: 100%; pest or weed control at 200 ppm [2]: 78%; pest or weed control at 200 ppm (Septoria nodorum): 100%; pest or weed control at 200 ppm [3]: 100%; pest or weed control at 200 ppm (Botrytis cinerea): 100%; pest or weed control at 200 ppm (Septoria tritici): 100%; pest or weed control at 200 ppm (Alternaria solani): 100% |
| COc1cc(F)c(-c2c(N(C)C)ncn2Cc2ccc(Cl)cc2)c(F)c1 [compound 265] | 61 | 32 | 60 | 0 | 97 | 86 | 0 |  |
| Fc1ccc(F)c(-c2c(Cl)ncn2Cc2ccc(Cl)cc2)c1F [compound 266] | 99 | 98 | 97 | 99 | 100 | 94 | 100 |  |
| CN(C)c1ncn(Cc2ccc(Cl)cc2)c1-c1c(F)ccc(F)c1F [compound 267] | 86 | 9 | 0 | 97 | 98 | 91 | 0 |  |
| COc1cc(F)c(-c2c(Cl)ncn2Cc2ccc(Cl)cc2)c(F)c1 [compound 268] | 99 | 63 | 98 | 75 | 99 | 87 | 100 |  |
| COc1cc(F)c(-c2c(N(C)C)ncn2Cc2ccc(Cl)cc2)c(F)c1 [compound 269] | 9 | 9 | 87 | 0 | 100 | 83 | 0 |  |
| COc1ccc(F)c(-c2c(Cl)ncn2Cc2ccc(Cl)cc2)c1F [compound 270] | 99 | 0 | 98 | 96 | 100 | 86 | 100 |  |
| COc1ccc(F)c(-c2c(N(C)C)ncn2Cc2ccc(Cl)cc2)c1F [compound 271] | 83 | 0 | 0 | 0 | 99 | 82 | 9 |  |
| Clc1ccc(-c2c(Cl)ncn2Cc2cccc(Cl)c2)cc1 [compound 272] | 55 | 17 | 0 | 0 | 64 | 91 | 0 |  |
| CN(C)c1ncn(Cc2cccc(Cl)c2)c1-c1ccc(Cl)cc1 [compound 273] | 41 | 46 | 0 | 0 | 63 | 13 | 0 |  |
| COc1cc(F)c(-c2c(Cl)ncn2Cc2ccc(C)cc2)c(F)c1 [compound 274] | 99 | 48 | 51 | 77 | 100 | 94 | 100 |  |
| COc1cc(F)c(-c2c(N(C)C)ncn2Cc2ccc(C)cc2)c(F)c1 [compound 275] | 74 | 9 | 0 | 0 | 100 | 85 | 82 |  |
| Cc1ccc(-n2c(Cl)nc(Cl)c2-c2ccc(F)cc2Cl)cc1 [compound 282] | 99 | 65 | 0 | 100 | 99 | 93 | 99 |  |
| COc1cc(F)c(-c2c(Cl)nc(Br)n2Cc2ccc(Cl)cc2)c(F)c1 [compound 283] | 93 | 0 | 0 | 99 | 100 | 93 | 98 |  |
| COc1cc(F)c(-c2c(Cl)nc(Cl)n2Cc2ccc(Cl)cc2)c(F)c1 [compound 284] | 99 | 6 | 92 | 100 | 100 | 95 | 99 |  |
| Fc1ccc(F)c(-c2c(Cl)nc(Cl)n2Cc2ccc(Cl)cc2)c1F [compound 285] | 100 | 98 | 83 | 100 | 99 | 94 | 85 |  |
| Fc1ccc(F)c(-c2c(Cl)nc(Br)n2Cc2ccc(Cl)cc2)c1F [compound 286] | 99 | 64 | 79 | 100 | 99 | 95 | 96 |  |
